For data set [1], the target named is Myc proto-oncogene protein (Homo sapiens) (UniProt P01106). Nature of the data set: Inhibition of Myc in human melanoma cells assessed as increase in Myc-repressed p27kip1 gene expression. In kind it is cell-based.
Data set [2] shares this target. Put plainly: Inhibition of Myc in human melanoma cells assessed as reduction in Myc-transactivated thymidylate synthase gene expression. Type of data set: cell-based.
For data set [3], the target named is T1, N-myc proto-oncogene protein (Homo sapiens) (UniProt P04198).
T1 sequence (whole entry): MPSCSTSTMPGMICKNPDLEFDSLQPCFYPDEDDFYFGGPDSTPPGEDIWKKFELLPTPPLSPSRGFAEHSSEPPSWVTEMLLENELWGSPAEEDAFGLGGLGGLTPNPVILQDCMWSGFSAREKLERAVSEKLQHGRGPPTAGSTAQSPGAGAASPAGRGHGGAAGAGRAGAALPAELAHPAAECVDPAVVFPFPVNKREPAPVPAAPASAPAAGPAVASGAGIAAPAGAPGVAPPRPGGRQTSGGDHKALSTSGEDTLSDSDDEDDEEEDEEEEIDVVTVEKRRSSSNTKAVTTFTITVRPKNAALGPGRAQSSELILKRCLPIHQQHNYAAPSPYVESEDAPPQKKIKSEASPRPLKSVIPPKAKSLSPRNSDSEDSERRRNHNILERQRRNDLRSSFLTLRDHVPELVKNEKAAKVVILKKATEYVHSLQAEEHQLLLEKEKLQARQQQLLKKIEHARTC
Put plainly: Inhibition of N-Myc (unknown origin) expressed in rat Rat1A cells assessed as inhibition of cell growth incubated for 72 hrs by methylene blue staining based assay.

Data set [4] addresses Myc proto-oncogene protein (Homo sapiens) (UniProt P01106). Nature of the data set: Inhibition of C-Myc (unknown origin) expressed in rat Rat1A cells assessed as inhibition of cell growth incubated for 72 hrs by methylene blue staining based assay.
The nature of data set [5]: Intrinsic clearance in mouse liver microsomes at 1 uM in presence of NADPH by LC-MS/MS analysis. In kind it is ADME, Microsome.
Data set [6] in a line: Intrinsic clearance in human liver microsomes at 1 uM in presence of NADPH by LC-MS/MS analysis. Type of data set: ADME, Microsome. In general terms: Liver microsomes are vesicles of endoplasmic reticulum, rich in cytochrome P450 enzymes.
The next data set concerns SK-MEL19. Put plainly: Growth inhibition of human SK-MEL-19 cells. Type of data set: functional, cell-based.
The subject of a further data set is SK-MEL-103. Nature of the data set: Growth inhibition of human SK-MEL-103 cells. Type of data set: functional, cell-based.
The test system of the next data set is BE(2)-C. Nature of the data set: Growth inhibition of human BE(2)-C cells. In kind it is functional, cell-based.
A further data set relates to IMR-32. Nature of the data set: Growth inhibition of human IMR32 cells. Type of data set: functional, cell-based.
The species entered for data set [7] is Homo sapiens. Put plainly: Growth inhibition of N-Myc amplified human NBL-WN cells. In kind it is functional.
For data set [8], the species on record is Homo sapiens. Nature of the data set: Growth inhibition of N-Myc overexpressing human NBL-S cells. In kind it is functional.
The next data set deals with SH-SY5Y. Put plainly: Growth inhibition of human SH-SY5Y cells. In kind it is functional, cell-based.
The species entered for data set [9] is Homo sapiens. Nature of the data set: Growth inhibition of human SHEP cells. In kind it is functional.
Data set [10] deals with Melanoma cell line. Put plainly: Growth inhibition of human melanoma (#3) cells. In kind it is functional, cell-based.
For data set [11], the system named is Melanoma cell line. Put plainly: Growth inhibition of human melanoma (#10) cells. Type of data set: functional, cell-based.
Another data set concerns Melanocyte. Nature of the data set: Growth inhibition of human melanocytes. In kind it is cell-based.
Data set [12] is described as follows: Stability in mouse liver microsomes assessed as parent compound remaining at 1 uM incubated for 0 mins in presence of NADPH by LC-MS/MS analysis. Type of data set: ADME, Microsome. To be noted: read-out: Stability.
Data set [13] in a line: Stability in human liver microsomes assessed as parent compound remaining at 1 uM incubated for 0 mins in presence of NADPH by LC-MS/MS analysis. In kind it is ADME, Microsome. The following applies: read-out: Stability.

SMILES strings stand for the structures. Activity calls are given as the source filed them. No cut-off for these calls is given here.

These results are taken from ChEMBL document CHEMBL4421731, “Small molecules inhibiting oncoprotein Myc” (2016).

Chain of Myc proto-oncogene protein (Homo sapiens) (P01106 whole entry): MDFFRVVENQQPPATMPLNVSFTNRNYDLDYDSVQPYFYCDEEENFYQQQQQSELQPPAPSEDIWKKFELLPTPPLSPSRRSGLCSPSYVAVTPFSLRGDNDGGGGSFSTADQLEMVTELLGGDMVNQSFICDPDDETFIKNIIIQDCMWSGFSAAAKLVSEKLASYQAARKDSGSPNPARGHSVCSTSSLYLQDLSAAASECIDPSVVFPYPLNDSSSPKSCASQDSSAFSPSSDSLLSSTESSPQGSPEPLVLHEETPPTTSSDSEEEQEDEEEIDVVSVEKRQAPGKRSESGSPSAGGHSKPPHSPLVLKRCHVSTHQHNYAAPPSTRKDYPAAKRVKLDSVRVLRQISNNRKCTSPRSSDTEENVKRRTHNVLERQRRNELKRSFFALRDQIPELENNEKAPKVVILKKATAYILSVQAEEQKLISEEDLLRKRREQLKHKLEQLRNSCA

For the molecule `C=CCc1cccc(/C=N/NC(=O)c2cc(C(C)(C)C)n[nH]2)c1O`, the inhibition entry in data set [1] and in data set [2] was “Active” each time.

As for `CCN(CC)Cc1c(C(=O)N/N=C/c2ccc(N(CC)CC)cc2O)nnn1-c1nonc1N`, the inhibition entry in [3] and in data set [4] was “Active” throughout. For the same molecule, the intrinsic clearance in data set [5] came out at 300 µL/min/mg; in [6], 120 µL/min/mg.

Consider `CN(C)CCCNc1cc(O)c2c(c1O)C(=O)c1ccccc1C2=O`, for which the “growth inhibition (GI)” value in the data set on SK-MEL19 and in the data set with SK-MEL-103 was “inactive” throughout.

Consider `COCc1cc(CN(C)C2CCCCC2)c(O)c2ncccc12`, for which the inhibition entry in [1] and in data set [2] was “Active” each time. Also, the “growth inhibition (GI)” value in the data set on BE(2)-C, in the data set with IMR-32, in the data set listed under Homo sapiens [7], in the data set filed under Homo sapiens [8], in the data set with SH-SY5Y and in the data set filed under Homo sapiens [9] was “Active” each time. Also, the “growth inhibition (GI)” value in the data set with Melanoma cell line [10] and with Melanoma cell line [11] was “Active” each time. Further, in the data set with Melanocyte, the “growth inhibition (GI)” value is listed as “Non-Toxic”.

As for `CC(C)(C)c1cc(C(=O)N/N=C/c2ccc(O)cc2O)n(-c2ccccc2)n1`, the inhibition entry in data set [1] and in data set [2] was “Active” each time. The “growth inhibition (GI)” value in the data set with BE(2)-C, in the data set with IMR-32, in the data set listed under Homo sapiens [7], in the data set filed under Homo sapiens [8], in the data set on SH-SY5Y and in the data set listed under Homo sapiens [9] was “Active” in each case. The “growth inhibition (GI)” value with Melanoma cell line [10] and with Melanoma cell line [11] was “Active” each time. For the same molecule, the “growth inhibition (GI)” value in the data set on Melanocyte is listed as “Non-Toxic”.

As to `CCCOc1ccc(N2C(=O)CC(N3CCC(C(=O)O)CC3)C2=O)cc1` (configuration not stated), the “growth inhibition (GI)” value in the data set with SK-MEL19 and in the data set on SK-MEL-103 was “inactive” in each case.

On to `Nc1nonc1-n1nnc(C(=O)N/N=C/c2ccccc2O)c1CN1CCc2ccccc2C1`, for which the inhibition entry in [3] and in data set [4] was “Active” throughout. For the same molecule, the remaining at 0 h, 1 µM in data set [12] and in data set [13] was 100% each time.

In the case of `CCN(CC)c1ccc(/C=N/NC(=O)c2cc(C)n[nH]2)c(O)c1`, the inhibition result in [3] and in [4] was “Active” throughout. The intrinsic clearance in [5] was 200 µL/min/mg; in [6], 47 µL/min/mg.

With `CC(=O)NC(c1ccc2c(c1)OCO2)c1ccc2cccnc2c1O` (configuration not stated), the inhibition entry in data set [1] and in data set [2] was “Active” throughout.

Consider `CCN(CC)c1ccc(/C=N/NC(=O)Cn2c3ccccc3c(=O)c3ccccc32)c(O)c1`, for which the inhibition result in data set [3] and in data set [4] was “Active” throughout. The intrinsic clearance is 100 µL/min/mg in data set [5] and less than 20 µL/min/mg in data set [6].

For `CCCN(CCC)Cc1c(C(=O)N/N=C/c2ccc(N(CC)CC)cc2O)nnn1-c1nonc1N`, the inhibition entry in [3] and in data set [4] was “Active” each time. Moreover, the intrinsic clearance in data set [5] came to 270 µL/min/mg; in data set [6] it was 130 µL/min/mg.

As for `COc1ccc(OCC(=O)N/N=C\c2cc(O)c(O)c(Br)c2)c(Br)c1`, the inhibition result in [1] and in [2] was “Active” in each case.

As to `CCOc1cccc(/C=N/NC(=O)CSc2nc3ccccc3[nH]2)c1O`, the inhibition entry in data set [1] and in data set [2] was “Active” each time. The “growth inhibition (GI)” value in the data set on BE(2)-C, with IMR-32, in the data set filed under Homo sapiens [7], in the data set filed under Homo sapiens [8], in the data set with SH-SY5Y and in the data set filed under Homo sapiens [9] was “Active” in each case. Further, the “growth inhibition (GI)” value in the data set on Melanoma cell line [10] and with Melanoma cell line [11] was “Active” throughout. Also, the “growth inhibition (GI)” value in the data set on Melanocyte was “Non-Toxic”.

With `CC(C)=NNc1ncnc2[nH]cnc12`, the “growth inhibition (GI)” value in the data set with SK-MEL19 and in the data set on SK-MEL-103 was “inactive” throughout.

As to `Cc1ccc(/C=N/NC(=O)c2cc(-c3ccccc3)n[nH]2)c(O)c1`, the inhibition result in data set [3] and in [4] was “Active” in each case.

With `O=C(N/N=C/c1c(O)ccc2ccccc12)c1cc(C23CC4CC(CC(C4)C2)C3)n[nH]1`, the inhibition entry in data set [1] and in data set [2] was “Active” each time.

As to `CCN(CC)C1CC(=O)N(c2cccc(Cl)c2)C1=O` (configuration not stated), the “growth inhibition (GI)” value with SK-MEL19 and with SK-MEL-103 was “inactive” throughout.

For `O=[N+]([O-])c1ccc(CCNC2CC3CCC2C3)cc1` (configuration not stated), the “growth inhibition (GI)” value in the data set with SK-MEL19 and with SK-MEL-103 was “inactive” in each case.

With `CCN(CC)c1ccc(/C=N\NC(=O)c2nnn(-c3nonc3N)c2CN2CCCCCC2)c(O)c1`, the inhibition result in data set [3] and in data set [4] was “Active” each time. The intrinsic clearance was found to be 690 µL/min/mg in data set [5] and 87 µL/min/mg in data set [6].
